Data published in publication PMC6624297 (Cell Death & Disease, 2019).

Tests used:
HTB-125 cell line = experiment: Selectivity index against HTB-125; format: cell-based; settings: SI = CC50/IC50
FVB mice = experiment: Toxicity test in FVB mice; format: in vivo; settings: 3 weeks
Protocol: Blood was collected from euthanized mice under isoflurane-induced deep anesthesia by cardiac puncture. After allowing blood coagulation at 4 °C, serum was collected by centrifugation at 3000 rpm for 10 min at 4 °C. Analysis of the level of ALT, AST, Glu and CRE in the serum was performed using a veterinary hematology analyzer (Fuji DRI-Chem 3500 s, Fujifilm, Tokyo, Japan) according to the manufacturer’s provided protocols. The histopathological changes in liver, lung, brain, and kidney were evaluated by using HE-stained section of the tissues (This part of the results is in the supplementary document).
Tissues were fixed in 10% neutral-buffered formalin for 24 h, embedded in paraffin, cut into 4-μm-thick sections, deparaffinized with xylene and processed with a graded ethanol series. Next, the sections were stained with HE and were observed using Eclipse Ts2 microscope (Nikon).

HCoEpiC cell line = experiment: Selectivity index against HCoEpiC; format: cell-based; settings: SI = CC50/IC50
H460 cells = experiment: Transwell migration and wound healing, H460; format: cell-based, human; settings: H460, 0.5, 1.0, 1.5 μM, 24 h
Protocol: Cell migration ability was measured using transwell chambers (8-μm pore size; Corning Costar, Cambridge, MA, USA). For the transwell assay, A549 and H460 cells suspended in serum-free RPMI-1640 medium containing different concentrations of L14e (0, 0.5, 1.0, and 1.5 μM) were seeded into the upper chamber. The lower chamber contained RPMI-1640 medium supplemented with 20% serum. After 24 h incubation, the filters were fixed in methanol and stained with 0.1% crystal violet. The upper faces of the filters were gently abraded, and the lower faces with cells migrated across the filters were imaged and counted under the microscope. For wound healing assays, cells were placed into 6-well plates and cultured until 100% confluence. An artificial scratch was created using a 200 μL pipette tip. Add serum-free RPMI-1640 medium containing different concentrations of drugs. At 24 h after culturing in serum-free medium, wound closure images were captured in the same field under magnification. Cell healing rates were calculated by the fraction of cell coverage across the line. These experiments were performed in triplicate and repeated three times.

A549 cells = experiment: Cell cycle PI staining FACS, A549; format: cell-based, human; settings: A549, 0.5, 1.0, 1.5 μM, 24 h
Source text: TS is a crucial enzyme in the DNA synthesis stage. When it is inhibited, first to show cell cycle arrest at G1/S phase. […] Flow cytometry show (Fig. 3), as the concentration of the compound increases, the cells in the G0/G1 phase increase, the cells in the S phase and the G2/M phase decrease. Eventually, the proliferation of cancer cells was inhibited by the G1/S phase arrest of the compound L14e.

VEGF = VEGF secretion ELISA in A549 supernatant; format: cell-based, human; settings: ELISA of cell supernatant
Protocol: Since the inhibitory effect of the compound on A549 cells was stronger than that of H460, the A549 cells were treated with different concentrations of L14e. Taking the supernatant of the cells to detect the change of VEGF content by ELISA assays, and the effect of the supernatant on the formation of endothelial cells was detected.

EGFR kinase = EGFR kinase (Homo sapiens, UniProt P00533); experiment: ADP-Glo kinase assay, EGFR; format: biochemical; settings: averages from triplicate assays
Chain of EGFR kinase (P00533 25-1210): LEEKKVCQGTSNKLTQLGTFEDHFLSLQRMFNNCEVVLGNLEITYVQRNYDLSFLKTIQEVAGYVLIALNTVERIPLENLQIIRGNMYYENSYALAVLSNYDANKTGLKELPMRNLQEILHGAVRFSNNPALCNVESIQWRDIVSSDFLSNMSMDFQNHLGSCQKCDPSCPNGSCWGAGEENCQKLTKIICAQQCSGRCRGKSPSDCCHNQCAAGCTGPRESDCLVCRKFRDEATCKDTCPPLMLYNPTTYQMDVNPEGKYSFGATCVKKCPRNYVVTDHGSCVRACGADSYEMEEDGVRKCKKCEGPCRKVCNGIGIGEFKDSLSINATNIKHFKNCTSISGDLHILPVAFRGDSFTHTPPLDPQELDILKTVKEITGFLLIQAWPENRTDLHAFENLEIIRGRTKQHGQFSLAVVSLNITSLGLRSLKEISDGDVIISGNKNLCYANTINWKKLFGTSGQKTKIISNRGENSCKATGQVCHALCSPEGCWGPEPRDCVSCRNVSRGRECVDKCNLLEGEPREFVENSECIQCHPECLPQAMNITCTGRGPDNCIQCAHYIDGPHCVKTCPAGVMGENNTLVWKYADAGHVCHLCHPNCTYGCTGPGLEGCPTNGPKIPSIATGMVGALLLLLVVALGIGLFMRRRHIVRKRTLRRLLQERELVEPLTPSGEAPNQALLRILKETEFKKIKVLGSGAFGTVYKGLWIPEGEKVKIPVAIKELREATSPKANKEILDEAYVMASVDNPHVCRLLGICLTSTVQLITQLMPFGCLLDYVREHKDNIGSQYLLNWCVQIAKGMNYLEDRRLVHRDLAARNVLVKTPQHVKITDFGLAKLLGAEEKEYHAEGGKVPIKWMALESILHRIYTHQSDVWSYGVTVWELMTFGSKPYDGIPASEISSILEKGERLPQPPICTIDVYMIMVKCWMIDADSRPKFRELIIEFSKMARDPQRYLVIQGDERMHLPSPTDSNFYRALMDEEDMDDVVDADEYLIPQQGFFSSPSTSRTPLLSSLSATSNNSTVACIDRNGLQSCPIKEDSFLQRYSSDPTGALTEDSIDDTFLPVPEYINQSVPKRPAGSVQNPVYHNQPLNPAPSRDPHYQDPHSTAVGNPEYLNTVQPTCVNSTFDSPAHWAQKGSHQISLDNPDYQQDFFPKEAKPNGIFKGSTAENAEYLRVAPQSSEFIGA

HPAEpiC cell line = experiment: Selectivity index against HPAEpiC; format: cell-based; settings: SI = CC50/IC50
HepG2 cells = experiment: MTT assay HepG2; format: cell-based; settings: Homo sapiens, 24h of treatment, mean ± SD
HUVECs = experiment: Tube formation in vitro; format: cell-based, human
Protocol: Matrigel was thawed at 4 °C and 50 μL of the solution were added to each well in a 96-well plate and formed a gel at 37 °C for 30 min. HUVECs were suspended at 1 × 10^4 cells in 100 μL of A549 cell supernatant with or without L14e (0, 0.5, 1.0, and 1.5 μM), and then added to each well. After 24h-incubation, the degree of tube formation was determined by counting the number of areas surrounded by tubes contained in 10 random fields, and expressed as mean ± SD. Using Image J for data analysis.

SK-MES-1 cells = experiment: MTT assay SK-MES-1; format: cell-based

Compound: O=C(Nc1cccc(Cl)c1)Nc1ccccc1NS(=O)(=O)c1c[nH]c(=O)[nH]c1=O [Compound L14e, N'-(3-chlorophenyl)-2-(2,4-dihydroxypyrimidine-5-sulfonamido)phenyl urea]
- SI (Selectivity index) HTB-125 (HTB-125 cell line): 10.39
- changes in body weight compared with control mice (FVB mice; FVB mice, 40, 80, 160 mg/kg): minimal
- serum levels of AST, ALT, GLU and creatinine (FVB mice; FVB mice, 40, 80, 160 mg/kg): within the reference ranges
- toxicity to mice (overall) (FVB mice; FVB mice, 40, 80, 160 mg/kg): minimal toxicity
- histopathological changes in liver, lung, brain, and kidney (HE staining) (FVB mice; mice): no visible pathological changes
- SI (Selectivity index) HCoEpiC (HCoEpiC cell line): 9.40
- effect on cell migration (H460 cells): significantly inhibited the migration
- effect on cell cycle (A549 cells): arrest the cell cycle in the G1/S phase
- secretion of VEGF in A549 cells (VEGF): significantly reduce the secretion of VEGF
- IC50 (EGFR kinase): 1920 nM
- SI (Selectivity index) HPAEpiC (HPAEpiC cell line): 19.79
- IC50 (HepG2 cells): 1360 ± 130 nM
- expression of phosphorylated VEGFR-2 (Tyr1175) in HUVECs (HUVECs; dose-dependent): inhibiting the expression of phosphorylated VEGFR-2
- tube formation of HUVECs (HUVECs; supernatant of A549 cells treated with 0.5, 1.0, 1.5 μM, 24 h): inhibited tube formation
- inhibition of SK-MES-1 cells (SK-MES-1 cells): did not inhibit
